Active and inactive are the calls of the source. No cut-off for these calls is given here.
Tests used:
[1] = target: Cysteinyl leukotriene receptor 1 (Cavia porcellus); experiment: Inhibition constant for displacement of [3H]LTD4 on guinea pig lung parenchymal membranes.
[2] = tested on: Cysteinyl leukotriene receptor 1 (Cavia porcellus); experiment: Dissociation constant (Kb) against LTD4
Cavia porcellus [3] = species on record: Cavia porcellus; experiment: Inhibition of peptidoleukotriene LTE4 induced contraction of guinea pig tracheal spirals at the concentration of 1 uM.; type: functional; conditions: Trachea
[4] = target: T1, Cysteinyl leukotriene receptor 1 (Cavia porcellus, UniProt Q2NNR5); experiment: Inhibition constant for displacement of [3H]LTD4 on guinea pig lung parenchymal membranes.; type: tissue-based, Lung parenchyma
T1 sequence (Q2NNR5 whole entry): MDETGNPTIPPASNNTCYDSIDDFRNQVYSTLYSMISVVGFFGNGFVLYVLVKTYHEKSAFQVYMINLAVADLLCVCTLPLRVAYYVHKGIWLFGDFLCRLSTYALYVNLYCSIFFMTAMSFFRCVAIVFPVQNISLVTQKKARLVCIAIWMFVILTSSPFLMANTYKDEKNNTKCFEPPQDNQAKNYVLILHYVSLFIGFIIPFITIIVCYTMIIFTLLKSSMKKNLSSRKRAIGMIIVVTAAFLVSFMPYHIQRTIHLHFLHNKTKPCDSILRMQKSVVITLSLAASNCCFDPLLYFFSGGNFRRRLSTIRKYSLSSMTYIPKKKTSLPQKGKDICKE

Cavia porcellus [5] = species on record: Cavia porcellus; experiment: Inhibition of peptidoleukotriene LTE4 induced contraction of guinea pig tracheal spirals at the concentration of 100 uM.; type: functional; conditions: Trachea
Cavia porcellus [6] = species on record: Cavia porcellus; experiment: Inhibition of peptidoleukotriene LTE4 induced contraction of guinea pig tracheal spirals at the concentration of 3.3 uM.; type: functional; conditions: Trachea
Cavia porcellus [7] = experiment: Effective dose of compound was measured in vivo for blocking LTD4 induced dyspnea after po administration.; type: functional
[8] = target: T1, Cysteinyl leukotriene receptor 1; experiment: Displacement of [3H]LTD4 on guinea pig lung parenchymal membranes; type: tissue-based, Lung parenchyma
Cavia porcellus [9] = experiment: Percent protection of animals against aerosolized LTD4-induced dyspnea at the concentration of 0.6 mg/kg.; type: functional; conditions: inhaled or nasal
Cavia porcellus [10] = experiment: Percent protection of animals against aerosolized LTD4-induced dyspnea at the concentration of 1.8 mg/kg.; type: functional
Cavia porcellus [11] = species on record: Cavia porcellus; experiment: Inhibition of peptidoleukotriene LTE4 induced contraction of guinea pig tracheal spirals at the concentration of 3.3 uM; Not significant; type: functional; conditions: Trachea
Cavia porcellus [12] = experiment: Percent protection of animals against aerosolized LTD4-induced dyspnea at the concentration of 0.6 mg/kg; Not significant; type: functional, organism-based; parameters: dose 0.6 mg/kg

Ki [1] [nM] | pKB [2] | Structure (SMILES) | other results
53 | 7.67 | COc1cc(C(=O)O)ccc1Cc1cn(C2CCCC2)c2ccc(NC(=O)OC3CCCC3)cc12 | 
 | 7.84 | COc1cc(C(=O)O)ccc1Cc1cn(C)c2ccc(NC(=O)OC3CCCC3)cc12 | inhibition at 100 µM (Cavia porcellus [5]): 75%; Ki [4]: 157 nM
 | 9.8 | COc1cc(C(=O)NS(=O)(=O)c2ccccc2)ccc1Cc1cn(C)c2ccc(NC(=O)CC3CCCC3)cc12 | ED50 (Cavia porcellus [7]): 1 mg/kg; Ki [8]: 0.3 nM
 | 7.72 | CCCn1cc(Cc2ccc(C(=O)O)cc2OC)c2cc(NC(=O)OC3CCCC3)ccc21 | Ki [4]: 58 nM
0.3 | 9.85 | COc1cc(C(=O)NS(=O)(=O)c2ccccc2Cl)ccc1Cc1cn(C)c2ccc(NC(=O)CC3CCCC3)cc12 | 
71 |  | CCn1cc(Cc2ccc(C(=O)O)cc2OC)c2cc(NC(=O)CC3CCCC3)ccc21 | 
 | 7.32 | COc1cc(C(=O)O)ccc1Cc1c[nH]c2ccc(NC(=O)OC3CCCC3)cc12 | Ki [4]: 236 nM
132 |  | COc1cc(C(=O)O)ccc1Cc1nn(C)c2ccc(NC(=O)CC3CCCC3)cc12 | 
 | 9.64 | COc1cc(C(=O)NS(=O)(=O)c2ccccc2C)ccc1Cc1cn(C)c2ccc(NC(=O)CC3CCCC3)cc12 | ED50 (Cavia porcellus [7]): 0.2 mg/kg; Ki [8]: 0.5 nM
10 | 8.55 | COc1cc(C(=O)O)ccc1Cc1cn(Cc2cccc(C#N)c2)c2ccc(NC(=O)CC3CCCC3)cc12 | 
5.6 | 9 | COc1cc(C(=O)NS(C)(=O)=O)ccc1Cc1cn(Cc2cccc(C#N)c2)c2ccc(NC(=O)CC3CCCC3)cc12 | 
 | 7.68 | COc1cc(C(=O)O)ccc1Cn1ccc2ccc(NC(=O)CC3CCCC3)cc21 | Ki [8]: 200 nM
57 |  | COc1cc(C(=O)O)ccc1Cc1cn(CC2CC2)c2ccc(NC(=O)OC3CCCC3)cc12 | 
70 |  | COc1cc(C(=O)O)ccc1Cc1cn(Cc2ccccc2)c2ccc(NC(=O)CC3CCCC3)cc12 | 
0.5 | 10.1 | COc1cc(C(=O)NS(=O)(=O)c2ccccc2Br)ccc1Cc1cn(C)c2ccc(NC(=O)CC3CCCC3)cc12 | 
84 |  | CCCn1cc(Cc2ccc(C(=O)O)cc2OC)c2cc(NC(=O)CC3CCCC3)ccc21 | 

Second part, the compound before the results:

Structure (SMILES) | Ki [1] [nM] | pKB [2] | other results
C=CCn1cc(Cc2ccc(C(=O)O)cc2OC)c2cc(NC(=O)CCCCC)ccc21 |  |  | inhibition at 1 µM (Cavia porcellus [3]): 43%
COCCn1cc(Cc2ccc(C(=O)O)cc2OC)c2cc(NC(=O)OC3CCCC3)ccc21 |  |  | Ki [4]: 41 nM
CCCCCC(=O)Nc1ccc2[nH]cc(Cc3ccc(C(=O)O)cc3OC)c2c1 |  |  | inhibition at 3.3 µM (Cavia porcellus [6]): 64%
COc1cc(C(=O)O)ccc1Cc1nn(C)c2ccc(NC(=O)OC3CCCC3)cc12 |  |  | Ki [8]: 160 nM
COc1cc(C(=O)NS(=O)(=O)c2ccccc2Cl)ccc1Cc1cn(C)c2ccc(NC(=O)NC3CCCC3)cc12 | 0.7 | 10.2 | 
COc1cc(C(=O)NS(=O)(=O)c2ccccc2Cl)ccc1Cc1nn(C)c2ccc(NC(=O)OC3CCCC3)cc12 | 0.3 |  | ED50 (Cavia porcellus [7]): 1 mg/kg
COc1cc(C(=O)NS(=O)(=O)c2ccccc2)ccc1Cc1c[nH]c2ccc(NC(=O)OC3CCCC3)cc12 | 1.4 | 9.8 | 
CCCn1cc(Cc2ccc(C(=O)NS(=O)(=O)c3ccccc3)cc2OC)c2cc(NC(=O)NC3CCCC3)ccc21 |  | 9.2 | Ki [8]: 0.5 nM
CCCCCC(=O)Nc1ccc2c(c1)c(Cc1ccc(C(=O)O)cc1OC)cn2C |  |  | Ki [4]: 1900 nM; inhibition at 1 µM (Cavia porcellus [3]): 77%
COc1cc(C(=O)NS(=O)(=O)c2ccccc2Cl)ccc1Cc1nn(C)c2ccc(NC(=O)NC3CCC3)cc12 | 0.1 |  | ED50 (Cavia porcellus [7]): 1 mg/kg
COc1cc(C(=O)NS(=O)(=O)C(C)C)ccc1Cc1cn(Cc2cccc(C#N)c2)c2ccc(NC(=O)CC3CCCC3)cc12 | 6.8 | 9.28 | 
COc1cc(C(=O)NS(=O)(=O)c2ccccc2C)ccc1Cc1cn(C)c2ccc(NC(=O)OC3CCCC3)cc12 [ZAFIRLUKAST] |  |  | ED50 (Cavia porcellus [7]): 0.3 mg/kg
COc1cc(C(=O)NS(=O)(=O)c2ccccc2C)ccc1Cc1nn(C)c2ccc(NC(=O)OC3CCCC3)cc12 | 0.3 |  | ED50 (Cavia porcellus [7]): 0.5 mg/kg
COc1cc(C(=O)NS(=O)(=O)c2ccccc2)ccc1Cc1cn(C2CCCC2)c2ccc(NC(=O)OC3CCCC3)cc12 | 67 | 7.84 | 
COc1cc(C(=O)NS(=O)(=O)c2ccccc2C)ccc1Cc1cn(C)c2ccc(NC(=O)NC3CCCC3)cc12 |  | 9.31 | ED50 (Cavia porcellus [7]): 0.9 mg/kg; Ki [8]: 1.4 nM
COc1cc(C(=O)NS(=O)(=O)c2ccccc2Cl)ccc1Cc1nn(C)c2ccc(NC(=O)CC3CCCC3)cc12 | 0.3 |  | protection at 0.6 mg/kg (Cavia porcellus [9]): 48%
CCCCCC(=O)Nc1ccc2c(c1)c(Cc1ccc(C(=O)O)cc1OC)cn2Cc1ccccc1 |  |  | inhibition at 1 µM (Cavia porcellus [3]): 38%

Structure (SMILES) | Ki [1] [nM] | pKB [2] | other results
COc1cc(C(=O)NS(=O)(=O)c2ccccc2C)ccc1Cc1nn(C)c2ccc(NC(=O)CC3CCCC3)cc12 | 0.3 |  | protection at 1.8 mg/kg (Cavia porcellus [10]): 100%; protection at 0.6 mg/kg (Cavia porcellus [9]): 47%
COc1cc(C(=O)O)ccc1Cn1ncc2ccc(NC(=O)CC3CCCC3)cc21 |  |  | Ki [8]: 50 nM
COc1cc(C(=O)O)ccc1Cn1ncc2ccc(NC(=O)OC3CCCC3)cc21 |  |  | Ki [8]: 80 nM
COc1cc(C(=O)NS(=O)(=O)c2ccccc2)ccc1Cc1nn(C)c2ccc(NC(=O)OC3CCCC3)cc12 | 0.25 |  | 
CCCc1c(OCCCCc2nnn[nH]2)ccc(C(C)=O)c1O [TOMELUKAST] |  |  | Ki [8]: 2820 nM
COCCn1cc(Cc2ccc(C(=O)NS(=O)(=O)c3ccccc3)cc2OC)c2cc(NC(=O)OC3CCCC3)ccc21 | 0.2 | 9.39 | ED50 (Cavia porcellus [7]): 1.1 mg/kg
CCCCCC(=O)Nc1ccc2c(c1)c(Cc1ccc(C(=O)O)cc1OC)cn2CC(=O)O |  |  | inhibition (Cavia porcellus [11]): inactive
COc1cc(C(=O)O)ccc1Cn1ccc2ccc(NC(=O)OC3CCCC3)cc21 |  | 7.8 | Ki [8]: 160 nM
COc1cc(C(=O)NS(=O)(=O)c2ccccc2C)ccc1Cc1c[nH]c2ccc(NC(=O)CC3CCCC3)cc12 |  | 9.69 | ED50 (Cavia porcellus [7]): 1.3 mg/kg; Ki [8]: 1 nM
COc1cc(C(=O)NS(=O)(=O)c2ccccc2Cl)ccc1Cc1nn(C)c2ccc(NC(=O)CC3CCCCC3)cc12 | 0.25 |  | protection at 1.8 mg/kg (Cavia porcellus [10]): 71%; ED50 (Cavia porcellus [12]): inactive
COc1cc(C(=O)O)ccc1Cc1cn(C)c2ccc(NC(=O)CC3CCCC3)cc12 |  |  | inhibition at 100 µM (Cavia porcellus [5]): 94%; Ki [4]: 80 nM
CCCC(CC)C(=O)Nc1ccc2c(c1)c(Cc1ccc(C(=O)O)cc1OC)cn2C (stereo unspecified) |  |  | Ki [4]: 1830 nM
COc1cc(C(=O)O)ccc1Cc1cn(C)c2ccc(NC(=O)NC3CCCC3)cc12 |  |  | Ki [4]: 1120 nM
COc1cc(C(=O)NS(=O)(=O)c2ccccc2Br)ccc1Cc1nn(C)c2ccc(NC(=O)OC3CCCC3)cc12 | 0.3 |  | ED50 (Cavia porcellus [7]): 1.1 mg/kg
COc1cc(C(=O)NS(=O)(=O)c2ccccc2)ccc1Cc1cn(C)c2ccc(NC(=O)OC3CCCC3)cc12 | 0.8 | 9.69 | ED50 (Cavia porcellus [7]): 2.5 mg/kg
CCCn1cc(Cc2ccc(C(=O)NS(=O)(=O)c3ccccc3)cc2OC)c2cc(NC(=O)OC3CCCC3)ccc21 |  | 8.44 | ED50 (Cavia porcellus [7]): 1 mg/kg
COc1cc(C(=O)NS(=O)(=O)c2ccccc2)ccc1Cc1cn(C)c2ccc(NC(=O)NC3CCCC3)cc12 |  |  | ED50 (Cavia porcellus [7]): ~35 mg/kg; Ki [8]: 0.8 nM

— ChEMBL document CHEMBL1124803, “Evolution of a series of peptidoleukotriene antagonists: synthesis and structure/activity relationships of 1,3,5-substituted indoles and indazoles” (J Med Chem, 1990)
